This is an account of results in PubChem BioAssay (NCI).

The structures appear in SMILES notation.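 Cultured in 96-well plates, cells were exposed to test compound for 48 hours across five concentrations. At the TGI there is no net growth.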

Some test systems named below: SF-295 CNS; 786-0 renal; HCT-116 colon; UO-31 renal; SW-620 colon; SNB-75 CNS; SNB-19 CNS; SR leukemia; CAKI-1 renal; HT29 colon; U251 CNS; OVCAR-3 ovarian; MDA-MB-435; PC-3 prostate; MOLT-4 leukemia; K-562 leukemia; RXF 393 renal; MDA-MB-231 breast.
Common to all, as to test: inhibition of tumour cell growth, NCI panel, 48 h

As for `COc1ccc(Nc2nc(N)c(C(=O)c3ccccc3)s2)cc1`, the TGI with SF-295 CNS was above 100 µM; with 786-0 renal, 31.6 µM; in the experiment with HCT-116 colon, 3.38 µM; in the experiment with UO-31 renal, 44.2 µM; in the experiment on SW-620 colon, above 100 µM; in the experiment with SNB-75 CNS, 0.33 µM. The TGI with SNB-19 CNS is above 100 µM; in the experiment with SR leukemia, 14.5 µM; in the experiment on CAKI-1 renal it was 33.3 µM; with HT29 colon, 15.4 µM; in the experiment on U251 CNS, above 100 µM; in the experiment with OVCAR-3 ovarian it was above 100 µM. The TGI in the experiment on MDA-MB-435 is above 100 µM; in the experiment with PC-3 prostate it was above 62.4 µM; with MOLT-4 leukemia it was above 61.7 µM; in the experiment on K-562 leukemia, above 100 µM; in the experiment with RXF 393 renal it was 24.2 µM.

As for `CC(=O)c1c(-c2ccccc2)c(-c2ccc(OCCN(C)C)cc2)n2ccccc12`, the TGI was found to be 30.9 µM in the experiment on SF-295 CNS; 32.2 µM with 786-0 renal; 26 µM in the experiment on HCT-116 colon; 32.1 µM in the experiment with UO-31 renal; 32 µM in the experiment on SW-620 colon; 27.9 µM in the experiment on SNB-75 CNS. Further, the TGI in the experiment with MDA-MB-231 breast is 31 µM; with SNB-19 CNS it was 40.4 µM; with CAKI-1 renal it was 37.1 µM; with HT29 colon it was 13.6 µM; with U251 CNS, 31.3 µM; with OVCAR-3 ovarian it was 32.8 µM. The TGI was 35.3 µM in the experiment on MDA-MB-435, 35.5 µM in the experiment on PC-3 prostate, 48 µM in the experiment with MOLT-4 leukemia and above 100 µM in the experiment with K-562 leukemia.

`CC(C)(C)OC(=O)Nc1cc(-c2ccccc2)co1`: the TGI in the experiment with SF-295 CNS, in the experiment with 786-0 renal, in the experiment with HCT-116 colon, in the experiment on UO-31 renal, in the experiment on SW-620 colon and in the experiment on MDA-MB-231 breast was above 100 µM each time. Besides, the TGI with SNB-19 CNS, with CAKI-1 renal, in the experiment on U251 CNS, with OVCAR-3 ovarian, in the experiment with MDA-MB-435 and with PC-3 prostate was above 100 µM each time. For the same compound, the TGI with MOLT-4 leukemia and with K-562 leukemia was above 100 µM each time.

As to `CN[C@@H](C)[C@H](OP(=O)(O)OC1[C@@H](O)[C@H](O)C(O)[C@H](O)[C@@H]1O)c1ccccc1` (some centres not stated), the TGI with SF-295 CNS, with 786-0 renal, in the experiment on HCT-116 colon, in the experiment with UO-31 renal, in the experiment with SW-620 colon and with SNB-75 CNS was above 100 µM in each case. Moreover, the TGI with MDA-MB-231 breast, with SNB-19 CNS, in the experiment with CAKI-1 renal, with HT29 colon, with U251 CNS and in the experiment on OVCAR-3 ovarian was above 100 µM in each case. Moreover, the TGI with MDA-MB-435, with PC-3 prostate and in the experiment with MOLT-4 leukemia was above 100 µM in each case.

On to `COc1ccccc1N=N/C(=N/NC(=O)c1ccc(C)cc1)c1ccc(N(CCC#N)CCC#N)cc1OC`, for which the TGI with SF-295 CNS is above 100 µM; with 786-0 renal, above 100 µM; in the experiment with HCT-116 colon, 59.9 µM; in the experiment on UO-31 renal it was above 100 µM; with SW-620 colon, above 100 µM; in the experiment with MDA-MB-231 breast it was 79.4 µM. Also, the TGI is above 100 µM in the experiment with SNB-19 CNS; above 100 µM in the experiment with CAKI-1 renal; 85.4 µM in the experiment with HT29 colon; above 100 µM with U251 CNS; above 100 µM in the experiment with OVCAR-3 ovarian; above 100 µM in the experiment with MDA-MB-435. Besides, the TGI in the experiment with PC-3 prostate was 71.2 µM; in the experiment with MOLT-4 leukemia, 49.6 µM; in the experiment with K-562 leukemia it was above 100 µM; in the experiment on RXF 393 renal, above 100 µM.

Regarding `Cc1ccc([N+](=O)[O-])cc1S(=O)(=O)Nc1ccc(C2=NNC(c3cccs3)C2)cc1` (configuration not stated), the TGI was 63.9 µM in the experiment with SF-295 CNS; above 100 µM with 786-0 renal; 63.5 µM with HCT-116 colon; above 100 µM in the experiment on UO-31 renal; above 100 µM in the experiment with SW-620 colon; above 100 µM in the experiment on SNB-75 CNS. Also, the TGI with SNB-19 CNS was above 100 µM; with SR leukemia, 78.8 µM; in the experiment with CAKI-1 renal it was above 100 µM; with HT29 colon it was above 100 µM; in the experiment on OVCAR-3 ovarian, 43.2 µM; with MDA-MB-435 it was above 100 µM. Further, the TGI with PC-3 prostate was above 100 µM; in the experiment on MOLT-4 leukemia, 92.9 µM; in the experiment with K-562 leukemia, above 100 µM; in the experiment with RXF 393 renal, 38.7 µM.

Consider `CC(=O)NNC(=S)/N=C/c1c(O)cc(C)oc1=O`, for which the TGI with SF-295 CNS, with 786-0 renal, in the experiment with HCT-116 colon, with UO-31 renal, in the experiment with SW-620 colon and in the experiment with SNB-75 CNS was above 100 µM in each case. Also, the TGI in the experiment with MDA-MB-231 breast, in the experiment with SNB-19 CNS, in the experiment with CAKI-1 renal, in the experiment on HT29 colon, with U251 CNS and in the experiment on OVCAR-3 ovarian was above 100 µM each time. The TGI with MDA-MB-435, in the experiment with PC-3 prostate and in the experiment on MOLT-4 leukemia was above 100 µM throughout.

In the case of `CC1C(c2ccc3c(c2)OCO3)c2cc3c(cc2OC1N1CCCCC1)OCO3` (configuration not stated), the TGI in the experiment with SF-295 CNS, in the experiment with 786-0 renal, with HCT-116 colon, in the experiment with UO-31 renal, in the experiment on SW-620 colon and in the experiment on SNB-19 CNS was above 100 µM in each case. Besides, the TGI with SR leukemia was above 100 µM; with CAKI-1 renal it was 79.9 µM; with HT29 colon it was above 100 µM; in the experiment with OVCAR-3 ovarian, above 100 µM; in the experiment on MDA-MB-435, 62.8 µM; with PC-3 prostate it was above 100 µM. Moreover, the TGI in the experiment with MOLT-4 leukemia and in the experiment with K-562 leukemia was above 100 µM in each case.

For the compound `Cc1cc(O)c(/C=N/c2nc(-c3cccc([N+](=O)[O-])c3)cs2)c(=O)o1`, the TGI with SF-295 CNS, in the experiment on 786-0 renal, in the experiment with HCT-116 colon, with UO-31 renal, with SW-620 colon and in the experiment with SNB-75 CNS was above 100 µM each time. The TGI in the experiment with MDA-MB-231 breast, in the experiment with SNB-19 CNS, in the experiment with CAKI-1 renal, with HT29 colon, with U251 CNS and with OVCAR-3 ovarian was above 100 µM in each case. The TGI in the experiment on MDA-MB-435 and with PC-3 prostate was above 100 µM each time.
